Laboratory results: US20080166805A1, “Culturing human cells and tissues in an N-glycolylneuraminic acid-free environment” (The Regents of the University of California, priority 2005, published 2008)

Test system: Caco-2 cells
Experiment: Endocytosis inhibition experiments (Neu5Gc uptake in Caco-2 cells)
Type: cell-based, human
Conditions: 2 h pre-treatment with drug, then 3 mM Neu5Gc
Procedure: The sonicate was centrifuged at 75×g for 15 min., and the pellet obtained consisted primarily of nuclei and unbroken cells. […] A portion (20%) of the “total homogenate” fraction was taken for protein quantification and Sia analysis by DMB derivatization and HPLC analysis (as discussed below.) The remainder was centrifuged at 100,000×g for 1 h. The resulting pellet, called the “membrane” fraction, was then resuspended by sonication (15 sec.) in 200 μl of sodium acetate buffer, pH 5.5. The 100,000×g supernatant, called the “soluble” fraction was adjusted to 90% ethanol using absolute ice-cold ethanol, and placed overnight at −20° C. The flocculant precipitate, which represents the “soluble protein” fraction, was washed 3 times with 90% ice-cold ethanol and then resuspended in 200 μl of water. The supernatant fluid representing the cytosolic low molecular weight (LMW) fraction was dried and brought up in 100 μL with water prior to Sia analysis. All the Sias in these fractions were released with mild acid hydrolysis if necessary and then analyzed by HPLC after DMB derivatization. Protein quantification was performed on the total homogenate, membrane and soluble protein fractions by using the BCA protein assay kit from Pierce (Rockford, Ill.) In some experiments, the resulting data obtained for the Sia bound to the membrane fraction and to the soluble proteins were pooled and presented here as a High Molecular Weight (HMW) fraction. Sialic Acid Release, DMB Derivatization and HPLC Analysis—The bound Sias from the total homogenate, membrane and soluble protein fractions were released using 2M acetic acid hydrolysis, 3 h. at 80° C. The released Sias, or free Sias, contained in the soluble LMW fraction were passed through a Microcon® YM-10 filter (Millipore, Bedford, Mass.) prior to DMB derivatization, which was done according to Hara et al., 1989. […] The eluant was monitored by fluorescence. Quantification of Sias—For all HPLC chromatograms, the quantification of Sias was done by comparison with known quantities of DMB derivatized Neu5Gc and Neu5Ac used as standards and then reported in terms of pmoles of Sia. For total homogenate, membrane and cytosolic protein fractions, this number was expressed per mg of protein. Due to minor sample-to-sample variations in amounts and recoveries, the data in the Figures is presented as percent of Neu5Gc over total Sias, rather than as absolute amounts. Endocytosis Inhibition Experiments—Caco-2 or normal fibroblast cells were split and cultured in alpha-MEM media supplemented respectively with 20% or 15% human serum for 4 days before starting the endocytosis drug inhibition experiments in order to deplete any Neu5Gc derived from FCS. Cells were then pre-treated for 2 h. with the specific inhibitors under the same culture conditions. Fresh media containing the same amount of inhibitor and 3 mM of Neu5Gc was then added to the cells, which were incubated for 16 h or 3 days and finally harvested and fractionated as described above.

`O=c1c(-c2ccc(O)cc2)coc2cc(O)cc(O)c12` [genistein] was tested, and the “Neu5Gc incorporation into membrane-bound glycoconjugates in the presence of inhibitor (percent of total Sia)” value was 34% and the “incorporation of Neu5Gc in the TH fraction in the presence of inhibitor (percent of total Sia)” value was 51%.
